Converted amounts (≈) assume the structure as drawn.
Assays:
[1] = biological target: T1, ATP-dependent translocase ABCB1 (Homo sapiens, UniProt P08183); test: Inhibition of p-glycoprotein in vinblastine-sensitive human MCF7 cells assessed as decrease in rhodamine 123 accumulation at 5 ug/ml after 30 mins by flow cytometry; assay type: cell-based; details: mcf7, 0.5 h
MCF7 [2] = test: Inhibition of p-glycoprotein expression in vinblastine-sensitive human MCF7 cells at 5 ug/ml after 24 hrs by immunofluorescence flow cytometry relative to control; assay type: functional; details: MCF7, 24 h
MCF7 [3] = test: Reversal of p-glycoprotein-mediated drug resistant in vinblastine-resistant human MCF7 cells assessed as ratio of IC50 for vinblastin to IC50 for vinblastin in presence of compound at 25 ug/ml after 72 hrs by SRB assay; assay type: cell-based
MCF7 [4] = test: Reversal of p-glycoprotein-mediated drug resistant in human MCF7 cells grown in vinblastine-free medium assessed as ratio of IC50 for vinblastin to IC50 for vinblastin in presence of compound at 25 ug/ml after 72 hrs by SRB assay; assay type: cell-based
MCF7 [5] = test: Reversal of p-glycoprotein-mediated drug resistant in vinblastine-sensitive human MCF7 cells assessed as ratio of IC50 for vinblastin to IC50 for vinblastin in presence of compound at 25 ug/ml after 72 hrs by SRB assay; assay type: cell-based
MCF7 [6] = test: Cytotoxicity against vinblastine-resistant human MCF7 cells after 72 hrs by SRB assay; assay type: functional, cell-based; details: MCF7, 72 h
[7] = biological target: T1, ATP-dependent translocase ABCB1; test: Inhibition of p-glycoprotein in vinblastine-sensitive human MCF7 cells assessed as decrease in rhodamine 123 accumulation at 25 ug/ml after 30 mins by flow cytometry; assay type: cell-based; details: mcf7, 0.5 h
[8] = biological target: T1, ATP-dependent translocase ABCB1; test: Inhibition of p-glycoprotein in vinblastine-sensitive human MCF7 cells assessed as decrease in rhodamine 123 accumulation at 25 ug/ml after 30 mins followed by washout measured after […] by flow cytometry; assay type: cell-based; details: mcf7, 0.5 h
MCF7 [9] = test: Inhibition of p-glycoprotein expression in vinblastine-sensitive human MCF7 cells at 25 ug/ml after 24 hrs by immunofluorescence flow cytometry relative to control; assay type: functional; details: MCF7, 24 h

T1 sequence (P08183 whole entry): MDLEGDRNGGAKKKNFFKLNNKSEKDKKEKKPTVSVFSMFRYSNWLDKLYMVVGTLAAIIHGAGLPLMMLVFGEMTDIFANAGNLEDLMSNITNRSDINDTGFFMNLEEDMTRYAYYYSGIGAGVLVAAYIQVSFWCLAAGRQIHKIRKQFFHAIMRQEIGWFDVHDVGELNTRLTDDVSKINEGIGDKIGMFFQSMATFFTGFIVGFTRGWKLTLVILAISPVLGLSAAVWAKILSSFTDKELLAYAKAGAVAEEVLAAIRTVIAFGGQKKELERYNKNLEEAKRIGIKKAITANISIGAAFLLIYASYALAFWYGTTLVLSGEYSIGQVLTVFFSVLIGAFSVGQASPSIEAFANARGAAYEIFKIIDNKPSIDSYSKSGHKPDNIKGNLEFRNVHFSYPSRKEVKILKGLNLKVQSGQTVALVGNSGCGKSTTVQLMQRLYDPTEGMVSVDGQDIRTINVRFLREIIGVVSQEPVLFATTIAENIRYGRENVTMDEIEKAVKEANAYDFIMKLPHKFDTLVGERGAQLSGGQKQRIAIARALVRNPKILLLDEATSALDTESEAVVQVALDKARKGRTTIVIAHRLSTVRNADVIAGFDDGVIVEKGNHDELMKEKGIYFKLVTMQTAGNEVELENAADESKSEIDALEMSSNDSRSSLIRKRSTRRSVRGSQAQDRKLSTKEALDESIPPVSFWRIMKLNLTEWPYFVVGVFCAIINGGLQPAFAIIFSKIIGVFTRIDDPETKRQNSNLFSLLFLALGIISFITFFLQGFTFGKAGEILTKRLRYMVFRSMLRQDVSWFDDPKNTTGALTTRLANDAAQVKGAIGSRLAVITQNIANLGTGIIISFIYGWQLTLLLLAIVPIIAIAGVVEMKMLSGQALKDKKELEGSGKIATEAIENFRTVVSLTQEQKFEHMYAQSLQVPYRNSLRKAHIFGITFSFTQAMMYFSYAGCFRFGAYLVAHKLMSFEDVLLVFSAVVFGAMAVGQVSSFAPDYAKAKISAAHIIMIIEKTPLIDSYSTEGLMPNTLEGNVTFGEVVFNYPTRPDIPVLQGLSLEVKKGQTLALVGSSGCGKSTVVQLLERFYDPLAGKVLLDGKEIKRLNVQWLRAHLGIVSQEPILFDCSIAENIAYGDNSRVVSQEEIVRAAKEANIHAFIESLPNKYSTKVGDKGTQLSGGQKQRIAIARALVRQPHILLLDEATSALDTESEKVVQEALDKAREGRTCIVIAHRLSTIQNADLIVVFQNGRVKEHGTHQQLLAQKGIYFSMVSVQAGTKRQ

SMILES | Ratio IC50 (MCF7 [3]) | Ratio IC50 (MCF7 [4]) | Ratio IC50 (MCF7 [5]) | IC50 (MCF7 [6]) | further results
COC(=O)[C@H]1[C@H]2C[C@@H]3c4[nH]c5cc(OC)ccc5c4CCN3C[C@H]2C[C@@H](OC(=O)c2cc(OC)c(OC)c(OC)c2)[C@@H]1OC [RESERPINE] | – | – | – | – | inhibition (INH) [1]: Active; inhibition at 5 µg/mL (MCF7 [2]): 38%
CCCCC[C@H]1CCCCCCCCCC(=O)O[C@H]2[C@H](O[C@H]3[C@H](O1)O[C@H](C)[C@H](O)[C@@H]3O)O[C@@H](C)[C@H](O[C@@H]1O[C@@H](C)[C@H](O[C@@H]3O[C@@H](C)[C@H](OC(=O)[C@@H](C)CC)[C@@H](O)[C@H]3O)[C@@H](O[C@@H]3O[C@H](CO)[C@@H](O)[C@H](O)[C@H]3O)[C@H]1OC(=O)[C@@H](C)CC)[C@H]2O | > 1910 | > 1590 | > 73.4 | – | –
C/C=C(\C)C(=O)O[C@H]1[C@H](O)[C@@H](O)[C@H](O[C@@H]2[C@H]3OC(=O)CCCCCCCCC[C@H](CCCCC)O[C@@H]4O[C@H](C)[C@@H](O)[C@H](O)[C@H]4O[C@@H]4O[C@H](COC(=O)[C@@H](C)CC)[C@@H](O)[C@H](O)[C@H]4O[C@H](O[C@H]2C)[C@@H]3OC(=O)[C@H](C)[C@@H](C)O)O[C@@H]1C [ORIZABIN XIV] | – | – | – | 1.5 µg/mL (≈ 1.34 µM) | –
CCCCC[C@H]1CCCCCCCCCC(=O)O[C@H]2[C@@H](O)[C@H](O[C@H]3[C@H](O1)O[C@H](C)[C@H](O)[C@@H]3O)O[C@@H](C)[C@@H]2O[C@@H]1O[C@@H](C)[C@H](O[C@@H]2O[C@@H](C)[C@H](OC(=O)[C@@H](C)CC)[C@@H](O)[C@H]2O)[C@@H](O[C@@H]2O[C@H](CO)[C@@H](O)[C@H](O)[C@H]2O)[C@H]1OC(=O)[C@@H](C)CC [MURUCOIDIN V] | 7.8 | 255 | 47 | – | inhibition (INH) [7]: Active; inhibition (INH) [8]: Active; inhibition at 25 µg/mL (MCF7 [9]): 30%
C/C=C(\C)C(=O)O[C@H]1[C@H](O)[C@@H](O)[C@H](O[C@@H]2[C@H]3OC(=O)CCCCCCCCC[C@H](CCCCC)O[C@@H]4O[C@H](C)[C@@H](O)[C@H](O)[C@H]4O[C@@H]4O[C@H](COC(=O)C(C)C)[C@@H](O)[C@H](O)[C@H]4O[C@H](O[C@H]2C)[C@@H]3OC(=O)[C@@H](C)[C@H](C)O)O[C@@H]1C [ORIZABIN XI] | – | – | – | 1.5 µg/mL (≈ 1.35 µM) | –
CCCCC[C@H]1CCCCCCCCCC(=O)O[C@@H]2[C@@H](O[C@@H]3O[C@H](C)[C@@H](OC(=O)[C@@H](C)CC)[C@H](O)[C@H]3O)[C@H](C)O[C@@H](O[C@H]3[C@H](O[C@H]4[C@H](O1)O[C@H](C)[C@@H](O)[C@@H]4O)O[C@H](COC(=O)[C@H](C)[C@@H](C)O)[C@@H](O)[C@@H]3O)[C@@H]2OC(=O)[C@@H](C)CC [ORIZABIN XX] | – | – | – | 1.5 µg/mL (≈ 1.34 µM) | –
C/C=C(\C)C(=O)O[C@H]1[C@H](O)[C@@H](O)[C@H](O[C@@H]2[C@H]3OC(=O)CCCCCCCCC[C@H](CCCCC)O[C@@H]4O[C@H](C)[C@@H](O)[C@H](O)[C@H]4O[C@@H]4O[C@H](COC(=O)C(C)C)[C@@H](O)[C@H](O)[C@H]4O[C@H](O[C@H]2C)[C@@H]3OC(=O)[C@H](C)[C@@H](C)O)O[C@@H]1C [ORIZABIN X] | – | – | – | 1.5 µg/mL (≈ 1.35 µM) | –
CCCCC[C@H]1CCCCCCCCCC(=O)O[C@@H]2[C@@H](O[C@@H]3O[C@H](C)[C@@H](OC(=O)[C@@H](C)CC)[C@H](O)[C@H]3O)[C@H](C)O[C@@H](O[C@H]3[C@H](O[C@H]4[C@H](O1)O[C@H](C)[C@@H](O)[C@@H]4O)O[C@H](COC(=O)[C@@H](C)[C@H](C)O)[C@@H](O)[C@@H]3O)[C@@H]2OC(=O)[C@@H](C)CC [ORIZABIN XXI] | – | – | – | 1.5 µg/mL (≈ 1.34 µM) | –
C/C=C(\C)C(=O)O[C@H]1[C@H](O)[C@@H](O)[C@H](O[C@@H]2[C@H]3OC(=O)CCCCCCCCC[C@H](CCCCC)O[C@@H]4O[C@H](C)[C@@H](O)[C@H](O)[C@H]4O[C@@H]4O[C@H](COC(=O)[C@@H](C)[C@H](C)O)[C@@H](O)[C@H](O)[C@H]4O[C@H](O[C@H]2C)[C@@H]3OC(=O)[C@@H](C)CC)O[C@@H]1C [ORIZABIN XVII] | – | – | – | 1.5 µg/mL (≈ 1.34 µM) | –
CCCCC[C@H]1CCCCCCCCCC(=O)O[C@H]2[C@H](O[C@H]3[C@H](O1)O[C@H](C)[C@H](O)[C@@H]3O)O[C@@H](C)[C@H](O[C@@H]1O[C@@H](C)[C@H](O[C@@H]3O[C@@H](C)[C@H](OC(=O)[C@@H](C)CC)[C@@H](O)[C@H]3O)[C@@H](OC(=O)[C@@H](C)CC)[C@H]1O)[C@H]2O | > 1910 | > 1590 | > 73.4 | – | –
C/C=C(\C)C(=O)O[C@H]1[C@H](O)[C@@H](O)[C@H](O[C@@H]2[C@H]3OC(=O)CCCCCCCCC[C@H](CCCCC)O[C@@H]4O[C@H](C)[C@@H](O)[C@H](O)[C@H]4O[C@@H]4O[C@H](COC(=O)[C@H](C)[C@@H](C)O)[C@@H](O)[C@H](O)[C@H]4O[C@H](O[C@H]2C)[C@@H]3OC(=O)[C@@H](C)CC)O[C@@H]1C [ORIZABIN XVI] | – | – | – | 1.5 µg/mL (≈ 1.34 µM) | –
CCCCC[C@H]1CCCCCCCCCC(=O)O[C@H]2[C@H](O[C@H]3[C@H](O1)O[C@H](CO)[C@@H](O)[C@@H]3O)O[C@@H](C)[C@H](O[C@@H]1O[C@@H](C)[C@H](O[C@@H]3O[C@@H](C)[C@H](OC(=O)[C@@H](C)CC)[C@@H](O)[C@H]3O)[C@@H](O[C@@H]3O[C@@H](C)[C@H](O)[C@@H](O)[C@H]3O)[C@H]1OC(=O)[C@@H](C)CC)[C@H]2O | > 1910 | > 1590 | > 73.4 | – | –
CCCCC[C@H]1CCCCCCCCCC(=O)O[C@H]2[C@H](O)[C@@H](CO)O[C@@H](O[C@H]3[C@H](O1)O[C@H](C)[C@H](O)[C@@H]3O)[C@@H]2O[C@@H]1O[C@@H](C)[C@H](OC(=O)[C@@H](C)CC)[C@@H](O[C@@H]2O[C@@H](C)[C@H](O)[C@@H](O)[C@H]2O)[C@H]1OC(=O)[C@@H](C)CC | > 1910 | > 1590 | 47 | – | –

Source: ChEMBL document CHEMBL1949591, “Reversal of multidrug resistance by morning glory resin glycosides in human breast cancer cells” (J Nat Prod, 2012)
